Test results taken from patent publication US7745489B2, “Compositions and methods for inhibition of phospholipase A2 mediated inflammation” (The Regents of the University of California, priority 2002, dated 2010).
Entries after “also recorded” stand apart in the source; their conditions may differ.

Tests used:
[1] = molecular target: T1, cPLA2 (Homo sapiens, UniProt P47712); assay: cPLA2 activity on TX-100/PAPC mixed micelles, inhibition by 2-oxoamides; format: biochemical; conditions: for Inhibition of cPLA2: result in words; for XI(50): mixed micelles TX-100 400 μM, PAPC 97 μM, PIP2 3 μM (0.6 mole %); for Inhibitory potency relative to OA4 (fold less potent): compared with OA4
T1 sequence (P47712 1-749): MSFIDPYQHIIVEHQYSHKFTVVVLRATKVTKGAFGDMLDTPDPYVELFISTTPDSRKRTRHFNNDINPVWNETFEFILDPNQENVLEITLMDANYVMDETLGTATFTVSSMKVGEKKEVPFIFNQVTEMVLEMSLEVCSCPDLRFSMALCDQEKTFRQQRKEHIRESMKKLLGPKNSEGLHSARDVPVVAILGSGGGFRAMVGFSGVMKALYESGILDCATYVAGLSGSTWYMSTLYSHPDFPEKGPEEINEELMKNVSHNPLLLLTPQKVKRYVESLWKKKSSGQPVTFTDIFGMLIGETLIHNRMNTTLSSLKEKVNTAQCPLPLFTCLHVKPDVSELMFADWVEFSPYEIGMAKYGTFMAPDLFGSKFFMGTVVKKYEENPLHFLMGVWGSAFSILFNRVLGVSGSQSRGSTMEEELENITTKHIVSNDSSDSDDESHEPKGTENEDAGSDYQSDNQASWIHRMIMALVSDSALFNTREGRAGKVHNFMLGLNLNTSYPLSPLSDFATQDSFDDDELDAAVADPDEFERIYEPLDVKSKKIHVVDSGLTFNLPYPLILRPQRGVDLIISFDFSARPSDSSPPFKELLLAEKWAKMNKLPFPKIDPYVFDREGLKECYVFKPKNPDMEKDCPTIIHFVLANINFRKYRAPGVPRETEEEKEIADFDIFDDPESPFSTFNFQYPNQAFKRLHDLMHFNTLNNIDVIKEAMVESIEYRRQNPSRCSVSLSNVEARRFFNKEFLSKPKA

[2] = molecular target: T2, iPLA2 (Homo sapiens, UniProt O60733); assay: iPLA2 activity mixed micelle assay, inhibition by 2-oxoamides; format: biochemical
T2 sequence (O60733 1-806): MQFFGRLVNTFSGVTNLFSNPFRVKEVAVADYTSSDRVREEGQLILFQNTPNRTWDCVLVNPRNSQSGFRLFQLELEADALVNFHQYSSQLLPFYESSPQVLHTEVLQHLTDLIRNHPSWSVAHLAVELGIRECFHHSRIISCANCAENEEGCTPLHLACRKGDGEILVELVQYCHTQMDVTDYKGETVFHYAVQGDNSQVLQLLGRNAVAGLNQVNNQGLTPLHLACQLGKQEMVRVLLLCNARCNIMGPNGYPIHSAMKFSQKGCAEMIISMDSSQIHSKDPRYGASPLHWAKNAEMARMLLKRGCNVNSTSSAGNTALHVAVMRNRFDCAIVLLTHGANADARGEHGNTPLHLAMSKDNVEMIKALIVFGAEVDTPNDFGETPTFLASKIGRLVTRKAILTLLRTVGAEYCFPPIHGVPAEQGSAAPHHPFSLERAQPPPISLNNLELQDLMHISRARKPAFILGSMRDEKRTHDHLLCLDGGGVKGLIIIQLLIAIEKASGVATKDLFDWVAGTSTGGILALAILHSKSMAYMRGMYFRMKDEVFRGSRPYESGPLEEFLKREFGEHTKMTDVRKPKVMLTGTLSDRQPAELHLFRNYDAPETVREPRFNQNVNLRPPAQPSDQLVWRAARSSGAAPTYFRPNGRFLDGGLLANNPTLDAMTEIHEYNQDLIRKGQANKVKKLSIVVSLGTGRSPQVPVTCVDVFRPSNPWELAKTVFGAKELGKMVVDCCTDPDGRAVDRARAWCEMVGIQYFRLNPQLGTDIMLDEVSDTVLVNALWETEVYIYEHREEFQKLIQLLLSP
Source text: All of the data above are provided with respect to XI(50), which is the mole fraction of inhibitor in the total substrate interface required to inhibit the enzyme by 50%. Almost all inhibitors of PLA2's partition into the phospholipid surface, because they usually have a hydrophobic nature that helps them bind to the active site of the PLA2. When these inhibitors partition into the surface, an important physical effect called surface dilution comes into play. In this case, the strength of the interaction of PLA2 and an inhibitor depends not on the bulk concentration of the inhibitor (molar units), but on the surface concentration of the inhibitor (mole fraction units).
PLA2 Activity Assays: Following homoginization and centrifugation, the spinal cord supernatants were assayed for cPLA2 or iPLA2 activity using the group specific assays developed in our laboratory (Yang et al., Biochem; 269: 278-288, 1999). Briefly the cPLA2 assay conditions were: 100 μM lipid PAPC/PIP2 (97/3) doping with 1% ^14C labeled PAPC in 400 μM triton X-100 mixed micelles, 100 mM Hepes, pH 7.5, 0.08 mM CaCl2, 0.1 mg/ml BSA and 2 mM DTT. iPLA2 assay conditions were: 100 μM DPPC doping with 1% ^14C labeled DPPC in 400 μM triton X-100 mixed micelles, 100 mM Hepes, pH 7.5, 5 mM EDTA, and 1 mM ATP. The total volume for each assay is 500 μL: 200 μL lipid, 250 μL assay buffer, 50 μL sample. In each case the amount of calcium or EDTA added was adjusted to account for the addition of EDTA in the lysis buffer to give the final concentrations listed above.
Lipid preparation: Lipid was dried under N2 and lyopholized for at least one hour to remove all traces of chloroform. Lipid was then resuspended in […] and triton X-100 and micelles were created by repeated vortexing and heating in hot water until the solution clarified. Samples were incubated with substrate for one hour at 40° C. The assay was then terminated and fatty acid extracted by the modified Dole assay. The amount of radioactive fatty acid released in the assay was determined by scintillation counting. Following analysis the data for the cPLA2 assay was adjusted for contaminating iPLA2 activity as described by Yang, et al. (Yang, et al., Anal. Biochem. 269: 278-288 (1999).

[3] = Table 3, at 0.020 mole fraction
[4] = Table 2, at 0.091 mole fraction, iPLA2

COC(=O)CCCNC(=O)C(=O)CCCCc1ccccc1 [OA20]
Inhibition of cPLA2 [1]: do not inhibit
Highest Conc. (mole fraction) w/ % inhibition ([2]; Table 3, at 0.091 mole fraction): 0.091: 55% ± 4%

CCCCCCCCCCOC[C@@H](CCC(=O)O)NC(=O)C(=O)CCCCCCCCCC [OA11, (4R)-5-(Decyloxy)-4-[(2-oxododecanoyl)amino]pentanoic Acid]
XI(50) (mole fraction) ([1]; Table 2, iPLA2): 0.047 ± 0.006 mole fraction
XI(50) [1]: 0.047±0.006 mole fraction

CCNC(=O)C(=O)CC [OA22]
Highest Conc. (mole fraction) w/ % inhibition [2, 3]: 0.020: 31% ± 6%

CCOC[C@H](CCC(=O)O)NC(=O)C(=O)CC [OA10]
XI(50) (mole fraction) ([1]; Table 2, iPLA2): 0.045 ± 0.007 mole fraction
XI(50) [1]: 0.045±0.007 mole fraction

CCNC(=O)C(=O)CC [OA8]
Highest Conc. (mole fraction) w/ % inhibition ([1]; Table 2, at 0.02 mole fraction, iPLA2): 0.02; 22% ± 7%

CCCCCCCCCCCCCC(=O)C(=O)N[C@@H](CCCC)CC(=O)O [OA3, (3S)-(2-Oxo-pentadecanoylamino)-heptanoic Acid]
XI(50) (mole fraction) ([1]; Table 2, iPLA2): 0.027 ± 0.004 mole fraction
Inhibitory potency relative to OA4 (fold less potent) ([1]; cPLA2): around 3 fold

CCCCCCCCCCC(=O)C(=O)N[C@@H](CCCC)CCCCC(=O)O [OA6, (6S)-6-(2-Oxo-dodecanoylamino)-decanoic Acid]
XI(50) (mole fraction) ([1]; Table 2, iPLA2): 0.018 ± 0.009 mole fraction
Inhibitory potency relative to OA4 (fold less potent) ([1]; cPLA2): around 2 fold

CCNC(=O)OC[C@H](CCC(=O)OC)NC(=O)C(=O)CC [OA26]
XI(50) (mole fraction) ([1]; Table 4, cPLA2): 0.028 ± 0.017 mole fraction
Inhibition of cPLA2 [1]: does
XI(50) (mole fraction) ([2]; Table 4): 0.018 ± 0.002 mole fraction

CCC(=O)C(=O)N[C@H]1CCC(=O)OC1 [OA25]
Highest Conc. (mole fraction) w/ % inhibition ([1]; Table 4, cPLA2, at 0.091 mole fraction): cPLA2: 0.091: 41% iPLA2: N/A
Inhibition of cPLA2 [1]: fairly poor inhibitor
XI(50) (mole fraction) ([2]; Table 4): C PLA2: N.D. I PLA2: 0.0142 ± 0.0004 mole fraction

CCCCCCCCCCC(=O)C(=O)N[C@@H](CCC(=O)O)COC(=O)NCCCCCCCC [OA16, 5-octylcarbamoyloxy-4-(S)-(2-oxo-dodecanoylamino)-pentanoic Acid]
Highest Conc. (mole fraction) w/ % inhibition [1, 4]: 0.091, 60%
Inhibition of cPLA2 [1]: essentially no measurable inhibition

CCC(=O)C(=O)NCCCC(=O)OC [OA19]
Inhibition of cPLA2 [1]: no inhibitory activity; also recorded: no measurable inhibition
XI(50) (mole fraction) ([2]; Table 3): 0.0158 ± .0009 mole fraction

CCCCCCCCCCCCCC(=O)C(=O)N[C@H](CCC(=O)O)CC(C)C [OA12, (4R)-6-Methyl-4-(2-oxo-pentadecanoylamino)-heptanoic Acid]
XI(50) (mole fraction) ([1]; Table 2, iPLA2): 0.017 ± 0.006 mole fraction

CCCCCCCCCCCCCCC(=O)C(=O)N[C@@H](CCC(=O)O)C(=O)NCCCCCCCCCC [OA15, 4-Decylcarbamoyl-4-(S)-(2-oxo-hexadecanoylamino)-butyric Acid]
XI(50) (mole fraction) ([1]; Table 2, iPLA2): 0.044 ± 0.007 mole fraction
Inhibition of cPLA2 [1]: moderate level of inhibition

CCCCCCCCCCC(=O)C(=O)N[C@H](CCCC)CCC(=O)O [OA7, (4R)-4-[(2-Oxododecanoyl)amino]octanoic acid]
XI(50) (mole fraction) ([1]; Table 2, iPLA2): 0.068 ± 0.005 mole fraction
XI(50) [1]: 0.068±0.005 mole fraction

CCCCCCCCCCCCCC(=O)C(=O)N[C@@H](CCCC)CCCC(=O)O [OA5, (5S)-5-(2-Oxopentadecanoylamino)-nonanoic Acid]
XI(50) (mole fraction) ([1]; Table 2, iPLA2): 0.008 ± 0.003 mole fraction
Inhibitory potency relative to OA4 (fold less potent) ([1]; cPLA2): essentially equivalent

CCC(=O)C(N)=O [OA21]
Highest Conc. (mole fraction) w/ % inhibition [2, 3]: 0.020: 38% ± 6%

CCCCCCCCCCC(=O)C(=O)N[C@H](CCC(=O)O)CC(C)C [OA13, (4R)-6-Methyl-4-(2-oxo-dodecanoylamino)-heptanoic Acid]
XI(50) (mole fraction) ([1]; Table 2, iPLA2): 0.033 ± 0.013 mole fraction

CCCCCCCCCCC(=O)C(=O)N[C@H](CCC(=O)O)C(=O)NCC [OA31, 4-Ethylcarbamoyl-4-(R)-(2-oxo-dodecanoylamino)-butyric Acid]
Inhibition of cPLA2 [1]: essentially no measurable inhibition

CCC/C=C\CCNC(=O)C(=O)CC [OA24]
Highest Conc. (mole fraction) w/ % inhibition [2, 3]: 0.020: 60% ± 6%

O=C(O)CCCNC(=O)C(=O)CCCc1ccccc1 [OA36, 4-(2-Oxo-5-phenyl-pentanoylamino)-butyric Acid]
Inhibition of cPLA2 [1]: lack of inhibition

CCCCCCC(=O)C(=O)N[C@H](CCC(=O)O)Cc1ccccc1 [OA17, (4R)-4-(2-Oxo-octanoylamino)-5-phenyl-pentanoic Acid]
Highest Conc. (mole fraction) w/ % inhibition [1, 4]: 0.091; 24%

CCCCCCCCCCC(=O)C(=O)N[C@H](CCC(=O)O)COC(=O)NCC [OA32, 5-ethylcarbamoyloxy-4-(R)-(2-oxo-dodecanoylamino)-pentanoic Acid]
Inhibition of cPLA2 [1]: essentially no measurable inhibition

CCCCCCCCCCC(=O)C(=O)N[C@@H](CCC(=O)O)COC(=O)NCC [OA30, 5-ethylcarbamoyloxy-4-(S)-(2-oxo-dodecanoylamino)-pentanoic Acid]
Inhibition of cPLA2 [1]: does not inhibit; also recorded: essentially no measurable inhibition

O=C(O)CCCNC(=O)C(=O)CCCCc1ccccc1 [OA35, 4-(2-Oxo-6-phenyl-hexanoylamino)-butyric Acid]
Inhibition of cPLA2 [1]: lack of inhibition

CCCCCCCCCCCCCC(=O)C(=O)N1CCCC1CCC(=O)O (stereo not shown) [OA18, 3-[1-(2-Oxo-pentadecanoyl)-pyrrolidin-2-yl]propionic Acid]
Highest Conc. (mole fraction) w/ % inhibition [1, 4]: 0.091; 24%

COC(=O)CCCNC(=O)C(=O)CCCc1ccccc1 [OA34]
Inhibition of cPLA2 [1]: do not inhibit

CCCCCCCCCCC(=O)C(=O)N[C@@H](CCC(=O)O)C(=O)NCC [OA29, 4-Ethylcarbamoyl-4-(S)-(2-oxo-dodecanoylamino)-butyric Acid]
Inhibition of cPLA2 [1]: did not inhibit; also recorded: essentially no measurable inhibition

CCCCCCCCCCCCCC(=O)C(=O)N[C@H](CCC(=O)O)Cc1ccccc1 [OA9, (4R)-4-(2-Oxo-pentadecanoylamino)-5-phenyl-pentanoic Acid]
XI(50) (mole fraction) ([1]; Table 2, iPLA2): 0.035 ± 0.016 mole fraction

CCC/C=C\CCNC(=O)C(=O)CC [OA23]
Highest Conc. (mole fraction) w/ % inhibition [2, 3]: 0.020: 43% ± 4%
